Experimental data taken from the OligoGym collection.
Values joined by “and” are separate entries in the source; they are usually repeats but may differ in a detail not shown here. Identical values can stand only once. After the bases stand the sugars from the 5' end (letter, count) and the backbone: PS all phosphorothioate, else s phosphorothioate and o phosphodiester by linkage. Methylation of C is not given here. e = 2'-O-(2-methoxyethyl) (MOE); k = constrained ethyl (cEt); d = 2'-deoxy (DNA)

Target: SOD1
Settings: ASO

CTCAGACTACATCCAAG (sugars e3 k2 d7 k2 e3, PS)
target mRNA inhibition (HepG2, 0.1875 µM): 42%
target mRNA inhibition (HepG2, 0.75 µM): 72%
target mRNA inhibition (HepG2, 3 µM): 76% and 88%
target mRNA inhibition (HepG2, 12 µM): 90%

CTCATAATAAGTGCCAT (sugars e2 k2 d9 k2 e2, PS)
target mRNA inhibition (HepG2, 5 µM): 44%

CTCGCTAGGCCACGCCGAGG (sugars e5 d10 e5, PS)
target mRNA inhibition (HepG2, 4 µM): 46%

CTCTTCATCCTTTGGCC (sugars e3 k2 d7 k2 e3, PS)
target mRNA inhibition (HepG2, 3 µM): 26%

CTGACAAGTTTAATACC (sugars e2 k2 d9 k2 e2, PS)
target mRNA inhibition (HepG2, 5 µM): 36%

CTGCACTGGGCCGTCGCCCT (sugars e5 d10 e5, PS)
target mRNA inhibition (HepG2, 4 µM): 24%

CTGCACTGGTACAGCCTGCT (sugars e5 d10 e5, PS)
target mRNA inhibition (HepG2, 5 µM): 38% and 29%

CTGCTTTTTCATGGACC (sugars e3 k2 d7 k2 e3, PS)
target mRNA inhibition (HepG2, 3 µM): 65%

CTTCACTGGTCCATTAC (sugars e3 k2 d7 k2 e3, PS)
target mRNA inhibition (HepG2, 3 µM): 11%

CTTCATCCTTTGGCCCA (sugars e3 k2 d7 k2 e3, PS)
target mRNA inhibition (HepG2, 3 µM): 35%

CTTCCAAGTGATCATAA (sugars e2 k2 d9 k2 e2, PS)
target mRNA inhibition (HepG2, 5 µM): 54%

CTTTCTTCATTTCCACC (sugars e3 k2 d7 k2 e3, PS)
target mRNA inhibition (HepG2, 3 µM): 11%

CTTTGGCCCACCGTGTTTTC (sugars e5 d10 e5, PS)
target mRNA inhibition (HepG2, 5 µM): 31% and 15%

GAACATGGAATCCATGC (sugars e3 k2 d7 k2 e3, PS)
target mRNA inhibition (HepG2, 3 µM): 9%

GAATGACAAAGAAATTCTGA (sugars e5 d10 e5, PS)
target mRNA inhibition (HepG2, 5 µM): 0%

GAATGTTTATTGGGCGA (sugars e2 k2 d9 k2 e2, PS)
target mRNA inhibition (HepG2, 4 µM): 65%

GAATGTTTATTGGGCGA (sugars e3 k2 d7 k2 e3, PS)
target mRNA inhibition (HepG2, 3 µM): 14%

GACAAGTTTAATACCCA (sugars e2 k2 d9 k2 e2, PS)
target mRNA inhibition (HepG2, 5 µM): 59%

GACCACCAGTGTGCGGCCAA (sugars e5 d10 e5, PS)
target mRNA inhibition (HepG2, 5 µM): 16%

GACTACATCCAAGGGAA (sugars e2 k2 d8 k2 e3, PS)
target mRNA inhibition (HepG2, 4 µM): 50%

GACTACATCCAAGGGAA (sugars e2 k2 d9 k2 e2, PS)
target mRNA inhibition (HepG2, 4 µM): 57%

GAGATCACAGAATCTTC (sugars e3 k2 d7 k2 e3, PS)
target mRNA inhibition (HepG2, 3 µM): 13%

GAGGATTAAAGTGAGGA (sugars e3 k2 d7 k2 e3, PS)
target mRNA inhibition (HepG2, 3 µM): 40%

GATACATTTCTACAGC (sugars kekeddddddddekek, linkages s1 o3 s8 o1 s2)
target mRNA inhibition (A431, 0.12 µM): 12%
target mRNA inhibition (A431, 0.6 µM): 22%
target mRNA inhibition (A431, 3 µM): 21%
target mRNA inhibition (A431, 15 µM): 34%
target mRNA inhibition (HepG2, 0.222 µM): 54%
target mRNA inhibition (HepG2, 0.667 µM): 78%
target mRNA inhibition (HepG2, 2 µM): 89%
target mRNA inhibition (HepG2, 6 µM): 96%

GATACATTTCTACAGCTAGC (sugars e5 d10 e5, PS)
target mRNA inhibition (HepG2, 4 µM): 78%
target mRNA inhibition (HepG2, 12 µM): 90%

GATCATAAATCAGTTTC (sugars e2 k2 d9 k2 e2, PS)
target mRNA inhibition (HepG2, 5 µM): 38%

GATCCCAATTACACCAC (sugars e2 k2 d9 k2 e2, PS)
target mRNA inhibition (HepG2, 4 µM): 58%

GCAAAATACAGGTCATT (sugars e3 k2 d7 k2 e3, PS)
target mRNA inhibition (HepG2, 3 µM): 43%

GCACTGGGCCGTCGCCCTTC (sugars e5 d10 e5, PS)
target mRNA inhibition (HepG2, 4 µM): 14%

GCCATACAGGGTTTTTA (sugars e3 k2 d7 k2 e3, PS)
target mRNA inhibition (HepG2, 3 µM): 11%

GCCCACTCTGGCCCCAA (sugars e3 k2 d7 k2 e3, PS)
target mRNA inhibition (HepG2, 3 µM): 22%

GCCCTTCAGCACGCACA (sugars e2 k2 d8 k2 e3, PS)
target mRNA inhibition (HepG2, 0.1875 µM): 8%
target mRNA inhibition (HepG2, 0.75 µM): 38%
target mRNA inhibition (HepG2, 3 µM): 74%
target mRNA inhibition (HepG2, 4 µM): 75%
target mRNA inhibition (HepG2, 12 µM): 96%

GCCCTTCAGCACGCACA (sugars e2 k2 d9 k2 e2, PS)
target mRNA inhibition (HepG2, 4 µM): 60%

GCCGTCGCCCTTCAGCA (sugars e2 k2 d9 k2 e2, PS)
target mRNA inhibition (HepG2, 4 µM): 57%

GCCTCAGACTACATCCA (sugars e2 k2 d9 k2 e2, PS)
target mRNA inhibition (HepG2, 0.1875 µM): 34%
target mRNA inhibition (HepG2, 0.75 µM): 59%
target mRNA inhibition (HepG2, 3 µM): 87%
target mRNA inhibition (HepG2, 4 µM): 82%
target mRNA inhibition (HepG2, 12 µM): 95%

GCGACTACTTTATAGGCCAG (sugars e5 d10 e5, PS)
target mRNA inhibition (HepG2, 4 µM): 19%

GCGATCCCAATTACACC (sugars e2 k2 d8 k2 e3, PS)
target mRNA inhibition (HepG2, 4 µM): 31%

GCGCCTCGCCCACTCTGGCC (sugars e5 d10 e5, PS)
target mRNA inhibition (HepG2, 4 µM): 33%

GCTTCCCCACACCTTCA (sugars e3 k2 d7 k2 e3, PS)
target mRNA inhibition (HepG2, 3 µM): 36%

GGAATGTTTATTGGGCG (sugars e3 k2 d7 k2 e3, PS)
target mRNA inhibition (HepG2, 3 µM): 15%

GGATAACAGATGAGTTA (sugars e2 k2 d8 k2 e3, PS)
target mRNA inhibition (HepG2, 4 µM): 63%

GGATAACAGATGAGTTA (sugars e3 k2 d7 k2 e3, PS)
target mRNA inhibition (HepG2, 3 µM): 32%

GGATACATTTCTACAGC (sugars e2 k2 d8 k2 e3, PS)
target mRNA inhibition (HepG2, 0.1875 µM): 4%
target mRNA inhibition (HepG2, 0.75 µM): 49%
target mRNA inhibition (HepG2, 3 µM): 72%
target mRNA inhibition (HepG2, 4 µM): 75%
target mRNA inhibition (HepG2, 12 µM): 87%

GGATAGAGGATTAAAGT (sugars e3 k2 d7 k2 e3, PS)
target mRNA inhibition (HepG2, 3 µM): 14%

GGATTCTTTTAATAGCC (sugars e2 k2 d8 k2 e3, PS)
target mRNA inhibition (HepG2, 5 µM): 14%
